Data: patent publication US20250154173A1 (Merck Sharp & Dohme LLC, priority 2023, published 2025)

Molecular target: T1, GST-RIPK1 (recombinant GST-RIPK1 kinase domain (residues 1-327)) (Homo sapiens, UniProt Q13546)
T1 construct: recombinant GST-RIPK1 kinase domain (residues 1-327) enzyme produced from baculovirus-transfected Sf21 cells; host or cells: baculovirus-transfected Sf21 insect cells
T1 sequence (Q13546 1-327): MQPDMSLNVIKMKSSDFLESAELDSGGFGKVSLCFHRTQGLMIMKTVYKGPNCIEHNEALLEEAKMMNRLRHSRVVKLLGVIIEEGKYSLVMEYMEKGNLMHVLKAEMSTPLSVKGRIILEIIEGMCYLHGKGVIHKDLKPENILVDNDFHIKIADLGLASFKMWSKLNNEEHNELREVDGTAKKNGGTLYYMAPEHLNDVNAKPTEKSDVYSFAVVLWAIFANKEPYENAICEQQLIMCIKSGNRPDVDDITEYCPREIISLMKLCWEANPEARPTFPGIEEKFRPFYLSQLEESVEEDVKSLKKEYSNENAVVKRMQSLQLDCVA
Assay: RIPK1-ADP-Glo Enzymatic Assay
Type: biochemical
Conditions: ten-point titration, top compound concentration of 100000 nM; 25 nM GST-RIPK1, 300 μM ATP, 3 μM dephosphorylated-MBP; 30 min pre-incubation, 150 min reaction
Summary of the method: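 GST-RIPK1 kinase domain (residues 1-327, Sf21-expressed), 25 nM, preincubated 30 min with compound, then reacted 150 min with 300 μM ATP and 3 μM dephosphorylated MBP in pH 7.3 Hepes buffer, 1% DMSO. ADP measured by ADP-Glo luminescence; EC50 from ten-point titration (top 100000 nM), four-parameter fit.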

| EC50 [nM] | Compound |
| --- | --- |
| 139 | N#Cc1ncccc1O[C@H]1C[C@@]2(C1)O[C@@H]1CC[C@@H](c3ccccc3)N1C2=O [Example 9.14, 3-{[(1r,3R,5′S,7a′R)-3′-oxo-5′-phenyltetrahydro-3′H-spiro[cyclobutane-1,2′-pyrrolo[2,1-b][1,3]oxazol]-3-yl]oxy}pyridine-2-carbonitrile] |
| 20 | N#Cc1ccc(F)c(OC2CC3(C2)O[C@@H]2CC[C@@H](c4ccccc4)N2C3=O)c1 (stereo partly drawn) [Example 8.3, 4-fluoro-3-{[(5′S,7a′R)-3′-oxo-5′-phenyltetrahydro-3′H-spiro[cyclobutane-1,2′-pyrrolo[2,1-b][1,3]oxazol]-3-yl]oxy}benzonitrile] |
| 32 | O=C1N2C(CC[C@H]2c2cnccn2)OC12CC(OCc1cccc3cncc(F)c13)C2 (stereo partly drawn) [Example 18.21, (5′S)-3-[(4-fluoroisoquinolin-5-yl)methoxy]-5′-(pyrazin-2-yl)tetrahydro-3′H-spiro[cyclobutane-1,2′-pyrrolo[2,1-b][1,3]oxazol]-3′-one] |
| 19 | O=C1N2[C@@H](CC[C@H]2c2ccc(F)cc2)O[C@]12C[C@H](Oc1nccc3nccn13)C2 [Example 9.34, (1r,3R,5′S,7a′R)-5′-(4-fluorophenyl)-3-[(imidazo[1,2-c]pyrimidin-5-yl)oxy]tetrahydro-3′H-spiro[cyclobutane-1,2′-pyrrolo[2,1-b][1,3]oxazol]-3′-one] |
| 140 | COc1cc(COC2CC3(C2)OC2CC[C@@H](c4cnccn4)N2C3=O)cc2nccn12 (stereo partly drawn) [Example 18.83, (5′S)-3-[(5-methoxyimidazo[1,2-a]pyridin-7-yl)methoxy]-5′-(pyrazin-2-yl)tetrahydro-3′H-spiro[cyclobutane-1,2′-pyrrolo[2,1-b][1,3]oxazol]-3′-one] |
| 159 | O=C1N2C(CC[C@H]2c2cnccn2)OC12CC(OCc1ccc3nc(C(F)(F)F)cn3c1)C2 (stereo partly drawn) [Example 18.54, (5′S)-5′-(pyrazin-2-yl)-3-{[2-(trifluoromethyl)imidazo[1,2-a]pyridin-6-yl]methoxy}tetrahydro-3′H-spiro[cyclobutane-1,2′-pyrrolo[2,1-b][1,3]oxazol]-3′-one] |
| 109 | O=C1N2C(CC[C@H]2c2cnccn2)OC12CC(OCc1ccc3nccn3c1)C2 (stereo partly drawn) [Example 18.69, (5′S)-3-[(imidazo[1,2-a]pyridin-6-yl)methoxy]-5′-(pyrazin-2-yl)tetrahydro-3′H-spiro[cyclobutane-1,2′-pyrrolo[2,1-b][1,3]oxazol]-3′-one] |
| 83 | O=C1N2C(CC[C@H]2c2cnccn2)OC12CC(OCc1cccc3cncc(F)c13)C2 (stereo partly drawn) [Example 18.72, (5′S)-3-[(4-fluoroisoquinolin-5-yl)methoxy]-5′-(pyrazin-2-yl)tetrahydro-3′H-spiro[cyclobutane-1,2′-pyrrolo[2,1-b][1,3]oxazol]-3′-one] |
| 129 | Cn1cc(C2CC[C@H]3OC4(CC(Oc5cc(C#N)ncn5)C4)C(=O)N23)cn1 (single isomer, unassigned) [Example 6.3, 6-((((1r or s),3R,5′(R or S),7a′R)-5′-(1-methyl-1H-pyrazol-4-yl)-3′-oxotetrahydro-3′H-spiro[cyclobutane-1,2′-pyrrolo[2,1-b]oxazol]-3-yl)oxy)pyrimidine-4-carbonitrile] |
| 460 | O=C1N2[C@@H](CC[C@H]2c2cnccn2)OC12CC(OCC1CCC1)C2 (single isomer, unassigned) [Example 23.1, (5′S,7a′R)-3-(cyclobutylmethoxy)-5′-(pyrazin-2-yl)tetrahydro-3′H-spiro[cyclobutane-1,2′-pyrrolo[2,1-b]oxazol]-3′-one] |
| 31 | N#Cc1ccc(O[C@H]2C[C@@]3(C2)O[C@@H]2CC[C@@H](c4ccccc4)N2C3=O)cc1F [Example 8.1, 2-fluoro-4-(((1r,3R,5′S,7a′R)-3′-oxo-5′-phenyltetrahydro-3′H-spiro[cyclobutane-1,2′-pyrrolo[2,1-b]oxazol]-3-yl)oxy)benzonitrile] |
| 22 | O=C1N2C(CC[C@H]2c2cnccn2)OC12CC(OCc1cc3ncccc3s1)C2 (stereo partly drawn) [Example 18.91, (5′S)-5′-(pyrazin-2-yl)-3-[(thieno[3,2-b]pyridin-2-yl)methoxy]tetrahydro-3′H-spiro[cyclobutane-1,2′-pyrrolo[2,1-b][1,3]oxazol]-3′-one] |
| 355 | N#Cc1ccoc1COC1CC2(C1)OC1CC[C@@H](c3cnccn3)N1C2=O (stereo partly drawn) [Example 18.104, 2-({[(5′S)-3′-oxo-5′-(pyrazin-2-yl)tetrahydro-3′H-spiro[cyclobutane-1,2′-pyrrolo[2,1-b][1,3]oxazol]-3-yl]oxy}methyl)furan-3-carbonitrile] |
| 310 | O=C1N2C(CC[C@H]2c2cnccn2)OC12CC(OCc1cnc(N3CCOCC3)nc1)C2 (stereo partly drawn) [Example 18.24, (5′S)-3-{[2-(morpholin-4-yl)pyrimidin-5-yl]methoxy}-5′-(pyrazin-2-yl)tetrahydro-3′H-spiro[cyclobutane-1,2′-pyrrolo[2,1-b][1,3]oxazol]-3′-one] |
| 92 | O=C1N2C(CC[C@H]2c2cnccn2)OC12CC(OCc1ccc(Cn3ccnc3)cc1)C2 (stereo partly drawn) [Example 18.74, (5′S)-3-({4-[(1H-imidazol-1-yl)methyl]phenyl}methoxy)-5′-(pyrazin-2-yl)tetrahydro-3′H-spiro[cyclobutane-1,2′-pyrrolo[2,1-b][1,3]oxazol]-3′-one] |
| 37 | O=C1N2C(CC[C@H]2c2cnccn2)OC12CC(OCc1ccc3scnc3c1)C2 (stereo partly drawn) [Example 18.61, (5′S)-3-[(1,3-benzothiazol-5-yl)methoxy]-5′-(pyrazin-2-yl)tetrahydro-3′H-spiro[cyclobutane-1,2′-pyrrolo[2,1-b][1,3]oxazol]-3′-one] |
| 607 | O=C1N2C(CC[C@H]2c2cnccn2)OC12CC(OCc1ccc3nc(C(F)(F)F)cn3c1)C2 (stereo partly drawn) [Example 18.103] |
| 83 | Cn1ccc([C@@H]2CC[C@H]3OC4(CC(Oc5cncc(Cl)c5)C4)C(=O)N32)n1 (stereo partly drawn) [Example 20.9, (5′S,7a′R)-3-[(5-chloropyridin-3-yl)oxy]-5′-(1-methyl-1H-pyrazol-3-yl)tetrahydro-3′H-spiro[cyclobutane-1,2′-pyrrolo[2,1-b][1,3]oxazol]-3′-one] |
| 210 | O=C1N2[C@@H](CC[C@H]2c2cc(F)cc(F)c2)O[C@]12C[C@H](Oc1cccn3nnnc13)C2 [Example 9.25, (1r,3R,5′S,7a′R)-5′-(3,5-difluorophenyl)-3-[(tetrazolo[1,5-a]pyridin-8-yl)oxy]tetrahydro-3′H-spiro[cyclobutane-1,2′-pyrrolo[2,1-b][1,3]oxazol]-3′-one] |
| 57 | CC1(Oc2cc(C#N)ncn2)CC2(C1)O[C@@H]1CC[C@@H](c3cc(F)cc(F)c3)N1C2=O (stereo partly drawn) [Example 5.1, 6-(((5′S,7a′R)-5′-(3,5-difluorophenyl)-3-methyl-3′-oxotetrahydro-3′H-spiro[cyclobutane-1,2′-pyrrolo[2,1-b]oxazol]-3-yl)oxy)pyrimidine-4-carbonitrile] |
| 2830 | Cn1cc(C2CCC3OC4(CC(Oc5cc(C#N)ncn5)C4)C(=O)N32)cn1 (single isomer, unassigned) [Example 6.4, 6-((((1s or r),3R,5′(R or S),7a′R)-5′-(1-methyl-1H-pyrazol-4-yl)-3′-oxotetrahydro-3′H-spiro[cyclobutane-1,2′-pyrrolo[2,1-b]oxazol]-3-yl)oxy)pyrimidine-4-carbonitrile] |
| 472 | N#Cc1cccc(F)c1COC1CC2(C1)OC1CC[C@@H](c3cnccn3)N1C2=O (stereo partly drawn) [Example 18.100, 3-fluoro-2-({[(5′S)-3′-oxo-5′-(pyrazin-2-yl)tetrahydro-3′H-spiro[cyclobutane-1,2′-pyrrolo[2,1-b][1,3]oxazol]-3-yl]oxy}methyl)benzonitrile] |
| 6 | O=C1N2C(CC[C@H]2c2cnccn2)OC12CC(OCc1cc3ncccc3s1)C2 (stereo partly drawn) [Example 18.43, (5′S)-5′-(pyrazin-2-yl)-3-[(thieno[3,2-b]pyridin-2-yl)methoxy]tetrahydro-3′H-spiro[cyclobutane-1,2′-pyrrolo[2,1-b][1,3]oxazol]-3′-one] |
| 796 | O=C1N2C(CC[C@H]2c2cnccn2)OC12CC(OCc1csc(C3CC3)n1)C2 (stereo partly drawn) [Example 18.71, (5′S)-3-[(2-cyclopropyl-1,3-thiazol-4-yl)methoxy]-5′-(pyrazin-2-yl)tetrahydro-3′H-spiro[cyclobutane-1,2′-pyrrolo[2,1-b][1,3]oxazol]-3′-one] |
| 354 | O=C1N2C(CC[C@H]2c2cnccn2)OC12CC(OCc1ccc(C(F)F)cn1)C2 (stereo partly drawn) [Example 18.63, (5′S)-3-{[5-(difluoromethyl)pyridin-2-yl]methoxy}-5′-(pyrazin-2-yl)tetrahydro-3′H-spiro[cyclobutane-1,2′-pyrrolo[2,1-b][1,3]oxazol]-3′-one] |
| 108 | O=C1N2[C@@H](CC[C@H]2c2ccc(F)cn2)O[C@]12C[C@@H](OCc1ccccc1)C2 [Example 3.1, (1s,3R,5′S,7a′R)-3-(benzyloxy)-5′-(5-fluoropyridin-2-yl)tetrahydro-3′H-spiro[cyclobutane-1,2′-pyrrolo[2,1-b]oxazol]-3′-one] |

| Compound | EC50 [nM] |
| --- | --- |
| N#Cc1cncc(O[C@H]2C[C@@]3(C2)O[C@@H]2CC[C@@H](c4ccc(F)cc4)N2C3=O)c1 [Example 9.49, 5-{[(1r,3R,5′S,7a′R)-5′-(4-fluorophenyl)-3′-oxotetrahydro-3′H-spiro[cyclobutane-1,2′-pyrrolo[2,1-b][1,3]oxazol]-3-yl]oxy}pyridine-3-carbonitrile] | 15 |
